Measurements as given in the supplement of paper PMC10307832.

How the values were obtained:
Experiment in all cases: relative viability (nuclei count vs DMSO), 5 days (fraction); higher = more cells survive
NCI-H2342 = system: NCI-H2342
How it was run: (§1)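 Relative viability equals treated-well nuclei counts divided by vehicle-well nuclei counts. Counts came from 4× images of lung cancer cell lines grown in 1536-well plates for 5 days after pin-tool dosing on the day after seeding. Dosing used one drug alone or a fixed anchor-drug dose plus five library-drug doses (not always all listed) in √10 steps, and values are medians of duplicate plates.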

NCI-H2405 = system: NCI-H2405
How it was run: as §1

LXF-289 = system: LXF-289
How it was run: as §1

NCI-H322M = system: NCI-H322M
How it was run: as §1

PC-14 = system: PC-14
How it was run: as §1

HCC-827 = system: HCC-827
How it was run: as §1

HCC-78 = system: HCC-78
How it was run: as §1

EKVX = system: EKVX
How it was run: as §1

LK-2 = system: LK-2
How it was run: as §1

NCI-H1975 = system: NCI-H1975
How it was run: as §1

RERF-LC-KJ = system: RERF-LC-KJ
How it was run: as §1

EPLC-272H = system: EPLC-272H
How it was run: as §1

NCI-H23 = system: NCI-H23
How it was run: as §1

NCI-H2126 = system: NCI-H2126
How it was run: as §1

SW 1573 = system: SW 1573
How it was run: as §1

LU99A = system: LU99A
How it was run: as §1

EMC-BAC-2 = system: EMC-BAC-2
How it was run: as §1

NCI-H1666 = system: NCI-H1666
How it was run: as §1

ChaGo-K-1 = system: ChaGo-K-1
How it was run: as §1

SW 900 = system: SW 900
How it was run: as §1

LCLC-103H = system: LCLC-103H
How it was run: as §1

SK-LU-1 = system: SK-LU-1
How it was run: as §1

O=c1cc(-c2cccc3c2Sc2ccccc2S3)oc(N2CCOCC2)c1 + Nc1ncn([C@H]2C[C@H](O)[C@@H](CO)O2)c(=O)n1 [Decitabine] (partner 2 µM)
relative viability (NCI-H2342; first compound 0.08 µM): 0.662
relative viability (NCI-H2342; first compound 0.253 µM): 0.794
relative viability (NCI-H2342; first compound 0.8 µM): 0.734
relative viability (NCI-H2342; first compound 2.53 µM): 0.721
relative viability (NCI-H2342; first compound 8 µM): 0.77
relative viability (NCI-H2405; first compound 0.08 µM): 0.697
relative viability (NCI-H2405; first compound 0.253 µM): 0.864
relative viability (NCI-H2405; first compound 0.8 µM): 0.677
relative viability (NCI-H2405; first compound 2.53 µM): 0.695
relative viability (NCI-H2405; first compound 8 µM): 0.756
relative viability (LXF-289; first compound 0.08 µM): 0.389
relative viability (LXF-289; first compound 0.253 µM): 0.465
relative viability (LXF-289; first compound 0.8 µM): 0.42
relative viability (LXF-289; first compound 2.53 µM): 0.439
relative viability (LXF-289; first compound 8 µM): 0.416
relative viability (NCI-H322M; first compound 0.08 µM): 0.661
relative viability (NCI-H322M; first compound 0.253 µM): 0.73
relative viability (NCI-H322M; first compound 0.8 µM): 0.742
relative viability (NCI-H322M; first compound 2.53 µM): 0.634
relative viability (NCI-H322M; first compound 8 µM): 0.749
relative viability (PC-14; first compound 0.08 µM): 0.213
relative viability (PC-14; first compound 0.253 µM): 0.19
relative viability (PC-14; first compound 0.8 µM): 0.185
relative viability (PC-14; first compound 2.53 µM): 0.165
relative viability (PC-14; first compound 8 µM): 0.217
relative viability (HCC-827; first compound 0.08 µM): 0.266
relative viability (HCC-827; first compound 0.253 µM): 0.341
relative viability (HCC-827; first compound 0.8 µM): 0.315
relative viability (HCC-827; first compound 2.53 µM): 0.219
relative viability (HCC-827; first compound 8 µM): 0.344
relative viability (HCC-78; first compound 0.08 µM): 0.653
relative viability (HCC-78; first compound 0.253 µM): 0.906
relative viability (HCC-78; first compound 0.8 µM): 0.647
relative viability (HCC-78; first compound 2.53 µM): 0.664
relative viability (HCC-78; first compound 8 µM): 0.74
relative viability (EKVX; first compound 0.08 µM): 0.431
relative viability (EKVX; first compound 0.253 µM): 0.34
relative viability (EKVX; first compound 0.8 µM): 0.371
relative viability (EKVX; first compound 2.53 µM): 0.37
relative viability (EKVX; first compound 8 µM): 0.349
relative viability (LK-2; first compound 0.08 µM): 0.245
relative viability (LK-2; first compound 0.253 µM): 0.341
relative viability (LK-2; first compound 0.8 µM): 0.244
relative viability (LK-2; first compound 2.53 µM): 0.255
relative viability (LK-2; first compound 8 µM): 0.335
relative viability (NCI-H1975; first compound 0.08 µM): 0.366
relative viability (NCI-H1975; first compound 0.253 µM): 0.36
relative viability (NCI-H1975; first compound 0.8 µM): 0.348
relative viability (NCI-H1975; first compound 2.53 µM): 0.38
relative viability (NCI-H1975; first compound 8 µM): 0.381
relative viability (RERF-LC-KJ; first compound 0.08 µM): 0.643
relative viability (RERF-LC-KJ; first compound 0.253 µM): 0.818
relative viability (RERF-LC-KJ; first compound 0.8 µM): 0.709
relative viability (RERF-LC-KJ; first compound 2.53 µM): 0.655
relative viability (RERF-LC-KJ; first compound 8 µM): 0.676
relative viability (EPLC-272H; first compound 0.08 µM): 0.341
relative viability (EPLC-272H; first compound 0.253 µM): 0.409
relative viability (EPLC-272H; first compound 0.8 µM): 0.363
relative viability (EPLC-272H; first compound 2.53 µM): 0.343
relative viability (EPLC-272H; first compound 8 µM): 0.366
relative viability (NCI-H23; first compound 0.08 µM): 0.274
relative viability (NCI-H23; first compound 0.253 µM): 0.314
relative viability (NCI-H23; first compound 0.8 µM): 0.297
relative viability (NCI-H23; first compound 2.53 µM): 0.264
relative viability (NCI-H23; first compound 8 µM): 0.293
relative viability (NCI-H2126; first compound 0.08 µM): 0.583
relative viability (NCI-H2126; first compound 0.253 µM): 0.581
relative viability (NCI-H2126; first compound 0.8 µM): 0.612
relative viability (NCI-H2126; first compound 2.53 µM): 0.534
relative viability (NCI-H2126; first compound 8 µM): 0.54
relative viability (SW 1573; first compound 0.08 µM): 0.561
relative viability (SW 1573; first compound 0.253 µM): 0.575
relative viability (SW 1573; first compound 0.8 µM): 0.598
relative viability (SW 1573; first compound 2.53 µM): 0.448
relative viability (SW 1573; first compound 8 µM): 0.596
relative viability (LU99A; first compound 0.08 µM): 0.897
relative viability (LU99A; first compound 0.253 µM): 0.996
relative viability (LU99A; first compound 0.8 µM): 1.04
relative viability (LU99A; first compound 2.53 µM): 0.866
relative viability (LU99A; first compound 8 µM): 1.18
relative viability (EMC-BAC-2; first compound 0.08 µM): 0.91
relative viability (EMC-BAC-2; first compound 0.253 µM): 1.1
relative viability (EMC-BAC-2; first compound 0.8 µM): 1.01
relative viability (EMC-BAC-2; first compound 2.53 µM): 1.04
relative viability (EMC-BAC-2; first compound 8 µM): 1.12
relative viability (NCI-H1666; first compound 0.08 µM): 0.664
relative viability (NCI-H1666; first compound 0.253 µM): 0.799
relative viability (NCI-H1666; first compound 0.8 µM): 0.706
relative viability (NCI-H1666; first compound 2.53 µM): 0.678
relative viability (NCI-H1666; first compound 8 µM): 0.762
relative viability (ChaGo-K-1; first compound 0.08 µM): 0.542
relative viability (ChaGo-K-1; first compound 0.253 µM): 0.555
relative viability (ChaGo-K-1; first compound 0.8 µM): 0.541
relative viability (ChaGo-K-1; first compound 2.53 µM): 0.51
relative viability (ChaGo-K-1; first compound 8 µM): 0.555
relative viability (SW 900; first compound 0.253 µM): 0.453
relative viability (SW 900; first compound 0.8 µM): 0.414
relative viability (SW 900; first compound 2.53 µM): 0.428
relative viability (SW 900; first compound 8 µM): 0.433
relative viability (LCLC-103H; first compound 0.08 µM): 0.721
relative viability (LCLC-103H; first compound 0.253 µM): 0.716
relative viability (LCLC-103H; first compound 0.8 µM): 0.646
relative viability (LCLC-103H; first compound 2.53 µM): 0.675
relative viability (LCLC-103H; first compound 8 µM): 0.702
relative viability (SK-LU-1; first compound 0.08 µM): 0.678
relative viability (SK-LU-1; first compound 0.253 µM): 0.813
relative viability (SK-LU-1; first compound 0.8 µM): 0.755
relative viability (SK-LU-1; first compound 2.53 µM): 0.643
relative viability (SK-LU-1; first compound 8 µM): 0.648
